The experiment deals with T1, human α1d receptor (Homo sapiens, UniProt P25100).
T1 construct: The entire coding region of α1d (1719 bp); expressed in transfected cells; host or cells: LM(tk-) mouse fibroblast line L-α1A (old nomenclature), ATCC CRL 11138
T1 sequence (P25100 1-572): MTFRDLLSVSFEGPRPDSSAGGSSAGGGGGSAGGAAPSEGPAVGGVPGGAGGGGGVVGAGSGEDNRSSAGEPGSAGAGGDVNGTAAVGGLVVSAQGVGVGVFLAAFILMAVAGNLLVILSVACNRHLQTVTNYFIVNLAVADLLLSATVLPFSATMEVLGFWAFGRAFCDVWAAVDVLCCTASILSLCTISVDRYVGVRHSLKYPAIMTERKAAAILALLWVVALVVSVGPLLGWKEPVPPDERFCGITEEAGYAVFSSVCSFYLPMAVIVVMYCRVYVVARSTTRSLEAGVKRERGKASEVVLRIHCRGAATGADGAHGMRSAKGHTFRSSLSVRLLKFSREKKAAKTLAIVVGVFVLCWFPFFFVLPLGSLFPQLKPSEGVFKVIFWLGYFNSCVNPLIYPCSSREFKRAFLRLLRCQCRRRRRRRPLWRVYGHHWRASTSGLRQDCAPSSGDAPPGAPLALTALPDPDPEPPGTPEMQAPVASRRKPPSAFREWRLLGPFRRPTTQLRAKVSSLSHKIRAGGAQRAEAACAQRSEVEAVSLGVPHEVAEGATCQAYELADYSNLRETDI
Nature of the experiment: Radioligand binding ([^3 H]prazosin) at cloned human α1d receptor. The conditions noted are these: LM(tk-) cell membranes, read-out: hα1d Ki. Here is the method:
Binding affinities were measured for selected compounds of the invention at six cloned human α1 and α2 receptor subtypes, as well as at the L-type calcium channel. The protocols for these experiments are given below.
The activity of compounds at the different human receptors was determined in vitro using cultured cell lines that selectively express the receptor of interest. These cell lines were prepared by transfecting the cloned cDNA or cloned genomic DNA or constructs containing both genomic DNA and cDNA encoding the human α-adrenergic receptors as follows:
α1d Human Adrenergic Receptor: The entire coding region of α1d (1719 bp), including 150 base pairs of 5' untranslated sequence (5' UT) and 300 bp of 3' untranslated sequence (3' UT), was cloned into the BamHI and ClaI sites of the polylinker-modified eukaryotic expression vector pCEXV-3, called EXJ.HR. The construct involved the ligation of partial overlapping human lymphocyte genomic and hippocampal cDNA clones: 5' sequence were contained on a 1.2 kb SmaI-XhoI genomic fragment (the vector-derived BamHI site was used for subcloning instead of the internal insert-derived SmaI site) and 3' sequences were contained on an 1.3 kb XhoI-ClaI cDNA fragment (the ClaI site was from the vector polylinker). Stable cell lines were obtained by cotransfection with the plasmid α1A/EXJ (expression vector containing the α1a receptor gene (old nomenclature)) and the plasmid pGCcos3neo (plasmid containing the aminoglycoside transferase gene) into LM(tk-) cells using calcium phosphate technique. The cells were grown, in a controlled environment (37° C., 5% CO2), as monolayers in Dulbecco's modified Eagle's Medium (GIBCO, Grand Island, N.Y.) containing 25 mM glucose and supplemented with 10% bovine calf serum, 100 units/ml penicillin g, and 100 μg/ml streptomycin sulfate. Stable clones were then selected for resistance to the antibiotic G-418 (1 mg/ml), and membranes were harvested and assayed for their ability to bind [^3 H]prazosin as described below (see "Radioligand Binding assays").
The cell line expressing the human α1d receptor used herein was designated L-α1A (old nomenclature) and was deposited with the American Type Culture Collection, 12301 Parklawn Drive, Rockville, Md. 20852, U.S.A. under the provisions of the Budapest Treaty for the International Recognition of the Deposit of Microorganisms for the Purposes of Patent Procedure. The cell line expressing the human α1d receptor, was accorded ATCC Accession No. CRL 11138, and was deposited on Sep. 25, 1992.
Radioligand Binding Assays for α1 receptors:
Transfected cells from culture flasks were scraped into 5 ml of 5 mM Tris-HCl, 5 mM EDTA, pH 7.5, and lysed by sonication. The cell lysates were centrifuged at 1000 rpm for 5 min at 4° C., and the supernatant was centrifuged at 30,000× g for 20 min at 4° C. The pellet was suspended in 50 mM Tris-HCl, 1 mM MgCl2, and 0.1% ascorbic acid at pH 7.5. Binding of the α1 antagonist [^3 H]prazosin (0.5 nM, specific activity 76.2 Ci/mmol) to membrane preparations of LM(tk-) cells was done in a final volume of 0.25 ml and incubated at 37° C. for 20 min. Nonspecific binding was determined in the presence of […] phentolamine. The reaction was stopped by filtration through GF/B filters using a cell harvester. Inhibition experiments, routinely consisting of 7 concentrations of the tested compounds, were analyzed using a non-linear regression curve-fitting computer program to obtain Ki values.
The compounds described above were assayed using cloned human alpha adrenergic receptors. […] The binding affinities of several compounds are illustrated in the following table.
Binding affinities of selected compounds of the present invention at cloned human α1d, α1b and α1a receptors. (h=human)

pKi: −log10 of the molar value.

For `COC(=O)c1[nH]c(=O)n(CCCCCN2CCC(C(=O)OC)(c3ccccc3)CC2)c1-c1ccc(F)c(F)c1` [Compound 1, 1-(5-(4-Methoxycarbonyl-4-phenylpiperidin-1-yl)pent-1-yl)-4-methoxycarbonyl-5-(3,4-difluorophenyl)-2,3-dihydro-2(1H)-imidazolone], the pKi is 6.48.
In the case of `COC(=O)c1[nH]c(=O)n(CCCCCN2CCC(C#N)(c3ccccc3)CC2)c1-c1ccc(F)c(F)c1` [Compound 2, 5-(3,4-Difluorophenyl)-2,3-dihydro-4-methoxycarbonyl-1-(5-(4-cyano-4-phenylpiperidin-1-yl)pent-1-yl)-2(1H)-imidazolone], the pKi was 6.43.
For `COC(=O)c1[nH]c(=O)n(CCCCCN2CCC(O)(c3ccccc3)CC2)c1-c1ccc(F)c(F)c1` [Compound 3, 5-(3,4-Difluorophenyl)-2,3-dihydro-4-methoxycarbonyl-1-(5-(4-hydroxy-4-phenylpiperidin-1-yl)pent-1-yl)-2(1H)-imidazolone], the pKi is 5.58.
In the case of `COC(=O)c1[nH]c(=O)n(CCCCCN2CCN(c3ccccc3C(N)=O)CC2)c1-c1cc(F)c(F)c(F)c1` [Compound 4, 1-(5-(4-(2-Aminocarbonylphenyl)piperazin-1-yl)pent-1-yl)-5-(3,4,5-trifluorophenyl)-2,3-dihydro-4-methoxycarbonyl-2(1H)-imidazolone], the pKi is 6.56.
On to `COC(=O)c1ccccc1N1CCN(CCCCCn2c(-c3cc(F)c(F)c(F)c3)c(C(=O)OC)[nH]c2=O)CC1` [Compound 5, 5-(3,4,5-Trifluorophenyl)-2,3-dihydro-4-methoxycarbonyl-1-(5-(4-(2-methoxycarbonylphenyl)piperazin-1-yl)pent-1-yl)-2(1H)-imidazolone], for which the pKi was 7.80.
As for `CCOC(=O)c1[nH]c(=O)n(CCCCCN2CCN(c3ccccc3C(N)=O)CC2)c1-c1ccc(F)c(F)c1` [Compound 6, 1-(5-(4-(2-Aminocarbonylphenyl)piperazin-1-yl)pent-1-yl)-4-ethoxycarbonyl-5-(3,4-difluorophenyl)-2,3-dihydro-2(1H)-imidazolone], the pKi was 6.85.
The figure for `COC(=O)c1[nH]c(=O)n(CCCCCN2CCN(c3ccccc3C(N)=O)CC2)c1-c1cc(F)c(F)cc1F` [Compound 7, 1-(5-(4-(2-Aminocarbonylphenyl)piperazin-1-yl)pent-1-yl)-5-(2,4,5-trifluorophenyl)-2,3-dihydro-4-methoxylcarboxy-2(1H)-imidazolone] is 6.71.
On to `COC(=O)c1[nH]c(=O)n(CCCCCN2CCC(C(=O)OC)(c3ccccc3)CC2)c1Cc1ccc(F)c(F)c1` [Compound 37, 5-(3,4-Difluorobenzyl)-2,3-dihydro-4-methoxycarbonyl-1-(5-(4-methoxycarbonyl-4-phenylpiperidin-1-yl)pent-1-yl)-2(1H) -imidazolone], for which the pKi was 6.29.

As usually defined, the pKi is −log10 of the Ki, conventionally taken in molar units.

The record behind these values is patent US6046331A, “Imidazolones and their use in treating benign prostatic hyperplasia and other disorders” (Synaptic Pharmaceutical Corporation, priority 1998, dated 2000).
